Positions of bridges follow the written chain, without caps; N, C: chain ends. Non-standard residues stand in square brackets, D forms with d. Residues, ends and D or L forms follow the SMILES beside them. *: point of attachment. Trp(7-Me) = Cc1cccc2c(C[C@H](N)C(=O)O)c[nH]c12; 2Nal = N[C@@H](Cc1ccc2ccccc2c1)C(=O)O; AEF = NCCOc1ccc(C[C@H](N)C(=O)O)cc1; αMeF = C[C@](N)(Cc1ccccc1)C(=O)O; Pen = CC(C)(S)[C@H](N)C(=O)O; αMeC = C[C@](N)(CS)C(=O)O; Ac5c = NC1(C(=O)O)CCCC1; Thp = NC1(C(=O)O)CCOCC1; Ac3c = NC1(C(=O)O)CC1; X7 = Nc1cccc(N*)c1
Target: IL-23R (Homo sapiens, UniProt Q5VWK5)
Sequence (Q5VWK5 24-629): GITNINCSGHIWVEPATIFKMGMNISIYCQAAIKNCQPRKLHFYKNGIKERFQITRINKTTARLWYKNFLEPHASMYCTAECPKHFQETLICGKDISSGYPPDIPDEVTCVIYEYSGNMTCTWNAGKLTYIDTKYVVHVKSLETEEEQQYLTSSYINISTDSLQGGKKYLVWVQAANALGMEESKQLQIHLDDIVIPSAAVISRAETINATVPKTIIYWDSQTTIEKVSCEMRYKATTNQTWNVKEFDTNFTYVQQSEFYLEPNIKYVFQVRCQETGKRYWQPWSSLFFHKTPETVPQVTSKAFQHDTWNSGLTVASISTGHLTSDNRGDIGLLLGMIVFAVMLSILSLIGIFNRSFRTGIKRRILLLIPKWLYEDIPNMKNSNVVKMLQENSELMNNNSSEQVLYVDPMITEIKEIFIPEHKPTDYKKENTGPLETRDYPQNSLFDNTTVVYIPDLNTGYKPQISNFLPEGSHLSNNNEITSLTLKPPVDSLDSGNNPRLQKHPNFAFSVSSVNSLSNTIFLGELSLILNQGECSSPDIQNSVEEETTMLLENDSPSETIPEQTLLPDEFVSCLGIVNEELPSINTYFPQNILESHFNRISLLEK
Assay: cell-based
Conditions: PBMC pSTAT3 IC50 (nM), PBMCs from healthy donors, IL-23 5 ng/mL, 30 minutes, phosphorylated STAT3
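Note: cryopreserved PBMCs stimulated at 37 °C in 5% CO2, then lysed, with phosphorylated STAT3 quantified in lysates using a phospho-STAT panel kit.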

Procedure: Cryopreserved peripheral blood mononuclear cells (PBMCs) from healthy donors were thawed and washed twice in ImmunoCult-XF T cell expansion medium (XF-TCEM) supplemented with CTL anti-aggregate wash. […] The cells were stimulated with cytokine for 30 minutes at 37° C. in 5% CO2, transferred onto ice for 10 minutes, and lysed. Cell lysates were stored at −80° C. until phosphorylated STAT3 was measured using the phospho-STAT panel kit (Meso Scale Discovery, K15202D).

Row | Structure (SMILES) | IC50
1 | CC(=O)NCCCC[C@@H]1NC(=O)[C@H](Cc2c[nH]c3c(C)cccc23)NC(=O)[C@H]([C@@H](C)O)NC(=O)[C@H](CC(N)=O)NC(=O)[C@@H](NC(C)=O)CSSC[C@@](C)(C(=O)N[C@@H](Cc2ccc(OCCN)cc2)C(=O)N[C@@H](Cc2ccc3ccccc3c2)C(=O)N[C@@](C)(CCCCN)C(=O)N[C@@H](CCCCNC(C)=O)C(=O)N[C@@H](CC(N)=O)C(=O)NC2(C(N)=O)CCOCC2)NC1=O [Compound 117, Ac-[Cys]-N-T-[W(7-Me)]-[Lys(Ac)]-[aMeCys]-Phe[4-(2-aminoethoxy)]-[2-Nal]-[a-MeLys]-[Lys(Ac)]-N-[THP]-NH2] | 7.1 nM
2 | CC(=O)NCCCC[C@@H]1NC(=O)[C@H](Cc2c[nH]c3c(C)cccc23)NC(=O)[C@H]([C@@H](C)O)NC(=O)[C@H](CC(N)=O)NC(=O)[C@@H](NC(C)=O)C(C)(C)SSC(C)(C)[C@@H](C(=O)N[C@@H](Cc2ccc(OCCN)cc2)C(=O)N[C@@H](Cc2ccc3ccccc3c2)C(=O)N[C@@](C)(CCCCN)C(=O)N[C@@H](CCCCNC(C)=O)C(=O)N[C@@H](CC(N)=O)C(=O)N[C@@](C)(Cc2ccccc2)C(=O)N[C@H](Cc2cccc(N)c2)C(N)=O)NC1=O [Compound 115, Ac-[Pen]-N-T-[W(7-Me)]-[Lys(Ac)]-[Pen]-Phe[4-(2-aminoethoxy)]-[2-Nal]-[a-MeLys]-[Lys(Ac)]-N-[a-MePhe]-(D)Phe[3-NH2]-NH2] | 39 nM
3 | CC(=O)NCCCC[C@@H]1NC(=O)[C@H](Cc2c[nH]c3c(C)cccc23)NC(=O)[C@H]([C@@H](C)O)NC(=O)[C@H](CC(N)=O)NC(=O)[C@@H](NC(C)=O)C(C)(C)SSC(C)(C)[C@@H](C(=O)N[C@@H](Cc2ccc(OCCN)cc2)C(=O)N[C@@H](Cc2ccc3ccccc3c2)C(=O)NC2(C(=O)N[C@@H](CCCCNC(=O)C(C)(C)C)C(=O)N[C@@H](CC(N)=O)C(=O)N[C@@](C)(Cc3ccccc3)C(N)=O)CCOCC2)NC1=O [Compound 139, Ac-[Pen]-N-T-[W(7-Me)]-[Lys(Ac)]-[Pen]-Phe[4-(2-aminoethoxy)]-[2-Nal]-[THP]-[Lys(COtBu)]-N-[a-MePhe]-NH2] | 6.6 nM
4 | CC(=O)N[C@H](CCCNC(=N)N)C(=O)N[C@H]1CCSC[C@@H](C(=O)N[C@@H](Cc2ccc(OCCN)cc2)C(=O)N[C@@H](Cc2ccc3ccccc3c2)C(=O)NC2(C(=O)N[C@@](C)(CCC(=O)O)C(=O)N[C@@H](CC(N)=O)C(=O)N[C@@H](Cc3cc(F)cc(F)c3)C(N)=O)CCOCC2)NC(=O)[C@H](CCC(N)=O)NC(=O)[C@H](Cc2c[nH]c3ccccc23)NC(=O)[C@H]([C@@H](C)O)NC(=O)[C@H](CCC(N)=O)NC1=O [Compound 46, Ac-[(D)Arg]-[Abu]-Q-T-W-Q-[Cys]-Phe[4-(2-aminoethoxy)]-[2-Nal]-[THP]-[aMeGlu]-N-[Phe(3,5-diF)]-NH2] | 48 nM
5 | CC(=O)N[C@H](CCCNC(=N)N)C(=O)N[C@@H]1C(=O)N[C@@H](CC(N)=O)C(=O)N[C@@H]([C@@H](C)O)C(=O)N[C@@H](Cc2c[nH]c3c(C)cccc23)C(=O)N[C@@H](CCC(N)=O)C(=O)N[C@H](C(=O)N[C@@H](Cc2ccc(OCCN)cc2)C(=O)N[C@@H](Cc2ccc3ccccc3c2)C(=O)NC2(C(=O)N[C@@H](CCC(=O)O)C(=O)N[C@@H](CC(N)=O)C(=O)NC3(C(N)=O)CCOCC3)CCCC2)C(C)(C)SSC1(C)C [Compound 99, Ac-[(D)Arg]-[Pen]-N-T-[W(7-Me)]-Q-[Pen]-Phe[4-(2-aminoethoxy)]-[2-Nal]-[Acvc]-E-N-[THP]-NH2] (Ac-[dR][Pen]NT[Trp(7-Me)]Q[Pen][AEF][2Nal][Ac5c]EN[Thp]-NH2; disulfide 2-7) | 4.2 nM
6 | CC(=O)N[C@H](CCCNC(=N)N)C(=O)N[C@H]1CCSC[C@@H](C(=O)N[C@@H](Cc2ccc(OCCN)cc2)C(=O)N[C@@H](Cc2ccc3ccccc3c2)C(=O)NC2(C(=O)N[C@@H](CCC(N)=O)C(=O)N[C@@H](CC(N)=O)C(=O)N[C@@](C)(Cc3ccccc3)C(N)=O)CCOCC2)NC(=O)[C@H](CCC(N)=O)NC(=O)[C@H](Cc2c[nH]c3ccccc23)NC(=O)[C@H]([C@@H](C)O)NC(=O)[C@H](CCC(N)=O)NC1=O [Compound 30, Ac-[(D)Arg]-[Abu]-Q-T-W-Q-[Cys]-Phe[4-(2-aminoethoxy)]-[2-Nal]-[THP]-Q-N-[a-MePhe]-NH2] | 25 nM
7 | CC(=O)NCCCC[C@@H]1NC(=O)[C@H](Cc2c[nH]c3c(C)cccc23)NC(=O)[C@H]([C@@H](C)O)NC(=O)[C@H](CC(N)=O)NC(=O)[C@@H](N)C(C)(C)SSC(C)(C)[C@@H](C(=O)N[C@@H](Cc2ccc(OCCNC(=O)OC(C)(C)C)cc2)C(=O)N[C@@H](Cc2ccc3ccccc3c2)C(=O)N[C@@](C)(CCCCNC(=O)OC(C)(C)C)C(=O)N[C@@H](CCCCNC(C)=O)C(=O)N[C@@H](CC(N)=O)C(=O)N[C@@](C)(Cc2ccccc2)C(N)=O)NC1=O [Compound 304, NH2--Pen-N-T-7MeW-K(Ac)-Pen-AEF(Boc)-2Nal-aMeK(Boc)-K(Ac)-N-aMePhe-CONH2] | 28 nM
8 | CC(=O)NCCCC[C@@H]1NC(=O)[C@H](Cc2c[nH]c3c(C)cccc23)NC(=O)[C@H]([C@@H](C)O)NC(=O)[C@H](CC(N)=O)NC(=O)[C@@H](NC(C)=O)C(C)(C)SSC(C)(C)[C@@H](C(=O)N[C@@H](Cc2ccc(OCCN)cc2)C(=O)N[C@@H](Cc2ccc3ccccc3c2)C(=O)N[C@@](C)(CCCCN)C(=O)N[C@@H](CCCCNC(C)=O)C(=O)N[C@@H](CC(N)=O)C(=O)N[C@H](C(N)=O)[C@H](C)c2ccccc2)NC1=O [Compound 312, MeCO-Pen-N-T-7MeTrp-K(Ac)-Pen-AEF-2Nal-aMeK-K(Ac)-N-bMePhe(S,R)-CONH2] | 90 nM
9 | CC(=O)NCCCC[C@@H]1NC(=O)[C@H](Cc2c[nH]c3c(C)cccc23)NC(=O)[C@H]([C@@H](C)O)NC(=O)[C@H](CC(N)=O)NC(=O)[C@@H](NC(C)=O)C(C)(C)SSC(C)(C)[C@@H](C(=O)N[C@@H](Cc2ccc(OCCN)cc2)C(=O)N[C@@H](Cc2ccc3ccccc3c2)C(=O)N[C@@](C)(CCCCN)C(=O)N[C@@H](CCCCNC(C)=O)C(=O)N[C@@H](CC(N)=O)C(=O)N[C@@](C)(Cc2ccccc2)C(=O)N[C@H](Cc2ccc(N)cc2)C(N)=O)NC1=O [Compound 114, Ac-[Pen]-N-T-[W(7-Me)]-[Lys(Ac)]-[Pen]-Phe[4-(2-aminoethoxy)]-[2-Nal]-[a-MeLys]-[Lys(Ac)]-N-[a-MePhe]-(D)Phe[4-NH2]-NH2] | 12 nM
10 | CC(=O)NCCCC[C@@H]1NC(=O)[C@H](Cc2c[nH]c3c(C)cccc23)NC(=O)[C@H]([C@@H](C)O)NC(=O)[C@H](CC(N)=O)NC(=O)[C@@H](NC(=O)[C@@H](CCCNC(=N)N)NC(C)=O)CSSC[C@@](C)(C(=O)N[C@@H](Cc2ccc(OCCN)cc2)C(=O)N[C@@H](Cc2ccc3ccccc3c2)C(=O)NC2(C(=O)N[C@@H](CCC(=O)O)C(=O)N[C@@H](CC(N)=O)C(=O)NC3(C(N)=O)CCOCC3)CC2)NC1=O [Compound 310, MeCO-r-C-N-T-7MeW-K(Ac)- aMeC-AEF-2Nal-Acpx-E-N-THP-CONH2] (Ac-[dR]CNT[Trp(7-Me)]K(Ac)[αMeC][AEF][2Nal][Ac3c]EN[Thp]-NH2; disulfide 2-7) | 9.9 nM
11 | C[C@@H](O)[C@@H]1NC(=O)[C@H](CCC(N)=O)NC(=O)[C@@H](NC(=O)[C@H](N)CCCNC(=N)N)CCSC[C@@H](C(=O)N[C@@H](Cc2ccc(OCCNC(=O)OC(C)(C)C)cc2)C(=O)N[C@@H](Cc2ccc3ccccc3c2)C(=O)NC2(C(=O)N[C@@H](CCC(=O)O)C(=O)N[C@@H](CC(N)=O)C(=O)NC3(C(N)=O)CCOCC3)CCOCC2)NC(=O)[C@H](CCC(N)=O)NC(=O)[C@H](Cc2c[nH]c3ccccc23)NC1=O [Compound 47, [(D)Arg]-[Abu]-Q-T-W-Q-[Cys]-Phe[4-(2-(Boc)aminoethoxy)]-[2-Nal]-[THP]-E-N-[THP]-NH2] | 5.3 nM
12 | CC(=O)NCCCC[C@H](NC(=O)[C@](C)(CCCCN)NC(=O)[C@H](Cc1ccc2ccccc2c1)NC(=O)[C@H](Cc1ccc(OCCN)cc1)NC(=O)[C@]1(C)CSSC[C@H](NC(C)=O)C(=O)N[C@@H](CC(N)=O)C(=O)N[C@@H]([C@@H](C)O)C(=O)N[C@@H](Cc2c[nH]c3c(C)cccc23)C(=O)N[C@@H](CCC(N)=O)C(=O)N1)C(=O)N[C@@H](CC(N)=O)C(=O)NC1(C(N)=O)CCOCC1 [Compound 120, Ac-[Cys]-N-T-[W(7-Me)]-Q-[aMeCys]-Phe[4-(2-aminoethoxy)]-[2-Nal]-[a-MeLys]-[Lys(Ac)]-N-[THP]-NH2] | 4.9 nM
13 | CC(=O)N[C@H](CCCNC(=N)N)C(=O)N[C@@H]1C(=O)N[C@@H](CCC(N)=O)C(=O)N[C@@H]([C@@H](C)O)C(=O)N[C@@H](Cc2c[nH]c3ccccc23)C(=O)N[C@@H](CCC(N)=O)C(=O)N[C@H](C(=O)N[C@@H](Cc2ccc(OCCN)cc2)C(=O)N[C@@H](Cc2ccc3ccccc3c2)C(=O)NC2(C(=O)N[C@@H](CCC(=O)O)C(=O)N[C@@H](CC(N)=O)C(=O)N[C@@H](CC(=O)Nc3cccc(N)c3)C(N)=O)CCOCC2)C(C)(C)SSC1(C)C [Compound 130, Ac-[(D)Arg]-[Pen]-Q-T-W-Q-[Pen]-Phe[4-(2-aminoethoxy)]-[2-Nal]-[THP]-E-N-[(N-(3-aminophenyl))Asn]-NH2] (Ac-[dR][Pen]QTWQ[Pen][AEF][2Nal][Thp]END(X7)-NH2; disulfide 2-7) | 9.2 nM
14 | CC(=O)N[C@H](CCCNC(=N)N)C(=O)N[C@@H]1C(=O)N[C@@H](CC(N)=O)C(=O)N[C@@H]([C@@H](C)O)C(=O)N[C@@H](Cc2c[nH]c3c(C)cccc23)C(=O)N[C@@H](CCC(N)=O)C(=O)N[C@H](C(=O)N[C@@H](Cc2ccc(OCCN)cc2)C(=O)N[C@@H](Cc2ccc3ccccc3c2)C(=O)NC2(C(=O)N[C@@H](CCC(=O)O)C(=O)N[C@@H](CC(N)=O)C(=O)N[C@@](C)(Cc3ccccc3)C(N)=O)CCOCC2)C(C)(C)SSC1(C)C [Compound 91, Ac-[(D)Arg]-[Pen]-N-T-[W(7-Me)]-Q-[Pen]-Phe[4-(2-aminoethoxy)]-[2-Nal]-[THP]-E-N-[a-MePhe]-NH2] (Ac-[dR][Pen]NT[Trp(7-Me)]Q[Pen][AEF][2Nal][Thp]EN[αMeF]-NH2; disulfide 2-7) | 4.1 nM
